Literature values as cited in US20230000905A1, “IODINE AND POLYOL COMPOSITION, METHOD, AND USE” (priority 2020, published 2023).

Tested on: rhinovirus
Details: molecular iodine at the tested concentrations

In the case of `II` [molecular iodine], the “time to inactivate rhinovirus” value is listed as 30 s.
